Our source for the IC50 and GI50 values is patent publication US9938273B2 (Plexxikon Inc., priority 2015, dated 2018).

For one assay, the target named is T1, c-KIT (Homo sapiens, UniProt P10721).
T1 construct: purchased Millipore 14-559K
As to the kind of experiment: AlphaScreen kinase assay with recombinant enzyme, c-KIT. It counts as biochemical. Conditions: 100ATP, 8pt, GMean. A digest of the protocol: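 Compounds in DMSO added to enzyme plus biotin-poly(Glu4-Tyr) (30 nM) in assay buffer, then ATP added. Streptavidin donor beads added (20 min, RT), then PY20 acceptor beads (60 min, RT), both at 10 μg/mL final in stop/detection buffer. IC50 conditions: 10 μM FLT3-D835Y/ITD, 100 μM c-KIT.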
Background: Alpha assays give light when donor and acceptor beads are brought close together.

The target of assay [1] is T2, BA/F3-FLT3-ITD + D835Y cells (Homo sapiens, UniProt P36888, D835Y, cells depend on it, form not given).
T2 sequence (P36888 1-993 D835Y): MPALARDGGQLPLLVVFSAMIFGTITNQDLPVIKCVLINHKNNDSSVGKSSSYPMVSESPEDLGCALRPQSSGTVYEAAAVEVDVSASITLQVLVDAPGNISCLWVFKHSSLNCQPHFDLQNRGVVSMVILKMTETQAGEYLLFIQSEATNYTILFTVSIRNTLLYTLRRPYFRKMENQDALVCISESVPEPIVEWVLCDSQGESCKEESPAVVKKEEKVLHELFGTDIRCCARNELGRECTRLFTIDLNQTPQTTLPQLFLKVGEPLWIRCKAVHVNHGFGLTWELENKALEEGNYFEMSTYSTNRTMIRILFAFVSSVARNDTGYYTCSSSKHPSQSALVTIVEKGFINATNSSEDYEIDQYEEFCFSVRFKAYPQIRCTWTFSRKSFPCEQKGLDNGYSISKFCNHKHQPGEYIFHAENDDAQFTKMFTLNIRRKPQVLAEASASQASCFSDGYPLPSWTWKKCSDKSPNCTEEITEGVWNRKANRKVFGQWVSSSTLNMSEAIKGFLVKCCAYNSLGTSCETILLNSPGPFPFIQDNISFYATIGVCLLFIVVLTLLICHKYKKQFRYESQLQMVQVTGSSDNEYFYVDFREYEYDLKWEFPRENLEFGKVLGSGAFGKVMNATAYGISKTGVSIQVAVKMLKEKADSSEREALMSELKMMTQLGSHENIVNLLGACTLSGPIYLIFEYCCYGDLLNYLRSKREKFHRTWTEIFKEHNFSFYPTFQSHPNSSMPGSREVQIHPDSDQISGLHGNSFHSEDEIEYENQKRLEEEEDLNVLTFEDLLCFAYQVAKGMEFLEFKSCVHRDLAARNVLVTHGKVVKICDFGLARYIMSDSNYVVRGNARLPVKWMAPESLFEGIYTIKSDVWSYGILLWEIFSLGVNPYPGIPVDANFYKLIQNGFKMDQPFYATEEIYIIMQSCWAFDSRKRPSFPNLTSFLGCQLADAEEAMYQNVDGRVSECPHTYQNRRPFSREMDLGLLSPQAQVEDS
The experiment in a line: Cell proliferation assay (CellTiter-Glo), engineered BA/F3 cells. It counts as cell-based, murine. Conditions: BaF3 FLT3 ITD/D835Y cells, 3d-Growth; read-out: BaF3_FLT3 ITD/D835Y 3d-Growth: IC50. The gist of the method:
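MOLM-14 AML cells (endogenous FLT3 ITD, AC220-selected D835Y or F691L variants) or murine Ba/F3 expressing full-length FLT3 ITD/D835Y, without IL-3 for FLT3 dependence, 1×10^4 cells/well. Eight-point 1:3 series from 1 μM final, 0.2% DMSO, 3 days at 37 °C. CellTiter-Glo luminescence (ATP) gave IC50.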
(ATP-based viability assays read luminescence as a measure of living cells.)

T1 sequence (P10721 26-976): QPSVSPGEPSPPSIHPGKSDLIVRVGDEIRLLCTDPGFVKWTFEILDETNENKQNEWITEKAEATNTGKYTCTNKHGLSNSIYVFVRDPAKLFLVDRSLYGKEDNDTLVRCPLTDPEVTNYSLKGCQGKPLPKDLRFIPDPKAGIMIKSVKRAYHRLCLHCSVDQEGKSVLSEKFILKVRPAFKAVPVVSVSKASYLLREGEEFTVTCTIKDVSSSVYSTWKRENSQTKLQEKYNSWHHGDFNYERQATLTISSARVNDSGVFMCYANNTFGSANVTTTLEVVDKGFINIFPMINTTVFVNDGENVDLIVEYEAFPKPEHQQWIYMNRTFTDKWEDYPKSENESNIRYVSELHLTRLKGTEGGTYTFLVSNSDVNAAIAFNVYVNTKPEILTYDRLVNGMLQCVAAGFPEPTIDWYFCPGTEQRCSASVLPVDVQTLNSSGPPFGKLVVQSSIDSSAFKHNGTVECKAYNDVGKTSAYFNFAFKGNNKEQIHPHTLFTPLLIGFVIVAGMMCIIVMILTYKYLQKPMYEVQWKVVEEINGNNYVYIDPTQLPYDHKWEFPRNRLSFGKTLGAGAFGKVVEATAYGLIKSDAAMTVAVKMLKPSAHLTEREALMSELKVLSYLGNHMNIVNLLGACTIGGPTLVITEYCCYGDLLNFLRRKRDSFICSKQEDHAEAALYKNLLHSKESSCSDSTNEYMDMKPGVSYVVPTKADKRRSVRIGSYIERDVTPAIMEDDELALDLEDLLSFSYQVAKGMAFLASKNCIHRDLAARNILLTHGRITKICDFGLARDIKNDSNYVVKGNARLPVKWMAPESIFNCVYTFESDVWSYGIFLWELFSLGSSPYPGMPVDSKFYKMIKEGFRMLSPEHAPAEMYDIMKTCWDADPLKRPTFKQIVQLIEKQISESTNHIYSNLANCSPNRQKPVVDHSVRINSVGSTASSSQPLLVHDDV

By IC50 is commonly meant the concentration that inhibits the measured activity by half. For the compound `c1ccc(-c2cc3cc(-c4ccc5[nH]nc(NC6CCNC6)c5c4)cnc3[nH]2)cc1` (stereo not drawn) [Compound P-0059, 5-(2-phenyl-1H-pyrrolo[2,3-b]pyridin-5-yl)-N-pyrrolidin-3-yl-1H-indazol-3-amine], the IC50 on c-KIT lay within 0.0001 to 10 µM. Moreover, in assay [1], the GI50 was 0.0001 to 10 µM.
On to `NC1CCN(c2cccc3ccc(-c4cnc5[nH]c(-c6ccccc6)cc5c4)nc23)CC1` [Compound P-0034, 1-[2-(2-phenyl-1H-pyrrolo[2,3-b]pyridin-5-yl)-8-quinolyl]piperidin-4-amine], for which the IC50 on c-KIT lay within 0.0001 to 10 µM. Also, the GI50 in assay [1] was in the range of 0.0001 to 10 µM.
Regarding `O=C(NC1CCNC1)c1cccc(-c2cnc3[nH]c(-c4ccccc4)cc3c2)n1` (stereo not drawn) [Compound P-0045, 6-(2-phenyl-1H-pyrrolo[2,3-b]pyridin-5-yl)-N-pyrrolidin-3-yl-pyridine-2-carboxamide], at c-KIT, the IC50 was in the range of 0.0001 to 10 µM. Besides, in assay [1], the GI50 lay in the range of 0.0001 to 10 µM.
`CON(C)C(=O)c1cccc(-c2cnc3[nH]c(-c4ccccc4)cc3c2)c1` [Compound P-0002, N-methoxy-N-methyl-3-(2-phenyl-1H-pyrrolo[2,3-b]pyridin-5-yl)benzamide]: the IC50 at c-KIT fell in the range of 0.0001 to 10 µM. For the same compound, in assay [1], the GI50 lay in the range of 0.0001 to 10 µM.
For `O=C(c1cccc(-c2cnc3[nH]c(-c4ccccc4)cc3c2)n1)N1CCCC(O)C1` (stereo not drawn) [Compound P-0069, (3-hydroxy-1-piperidyl)-[6-(2-phenyl-1H-pyrrolo[2,3-b]pyridin-5-yl)-2-pyridyl]methanone], the IC50 on c-KIT is 10 to 50 µM. Further, the GI50 in assay [1] lay in the range of 0.0001 to 10 µM.
In the same order, the values of `NC1CCN(C(=O)c2cc(-c3cnc4[nH]c(-c5ccccc5)cc4c3)ccn2)CC1` [Compound P-0038, (4-amino-1-piperidyl)-[4-(2-phenyl-1H-pyrrolo[2,3-b]pyridin-5-yl)-2-pyridyl]methanone] are 0.0001 to 10 µM and 0.0001 to 10 µM.
For the compound `CNC1CCN(C(=O)c2n[nH]c3ccc(-c4cnc5[nH]c(-c6ccccc6)cc5c4)cc23)CC1` [Compound P-0044, [4-(methylamino)-1-piperidyl]-[5-(2-phenyl-1H-pyrrolo[2,3-b]pyridin-5-yl)-1H-indazol-3-yl]methanone], the IC50 at c-KIT is 0.0001 to 10 µM. Besides, in assay [1], the GI50 is 0.0001 to 10 µM.
Regarding `Cc1ccc(-c2cnc3[nH]c(-c4ccccc4)cc3c2)cc1C(=O)N1CCC(N)CC1` [Compound P-0035, (4-amino-1-piperidyl)-[2-methyl-5-(2-phenyl-1H-pyrrolo[2,3-b]pyridin-5-yl)phenyl]methanone], on c-KIT, the IC50 fell in the range of 0.0001 to 10 µM. The GI50 in assay [1] lay within 0.0001 to 10 µM.
As for `NC1CCC(C(=O)N2Cc3c(cccc3-c3cnc4[nH]c(-c5ccccc5)cc4c3)C2=O)C1` (stereo not drawn) [Compound P-0047, 2-(3-aminocyclopentanecarbonyl)-4-(2-phenyl-1H-pyrrolo[2,3-b]pyridin-5-yl)isoindolin-1-one], the IC50 at c-KIT lay in the range of 0.0001 to 10 µM. Moreover, the GI50 in assay [1] lay within 0.0001 to 10 µM.
Turning to `CC(=O)NC1CCN(C(=O)c2cccc(-c3cnc4[nH]c(-c5ccc(F)cc5)cc4c3)c2)CC1` [Compound P-0001, N-[1-[3-[2-(4-fluorophenyl)-1H-pyrrolo[2,3-b]pyridin-5-yl]benzoyl]-4-piperidyl]acetamide], the IC50 at c-KIT was in the range of 0.0001 to 10 µM. For the same compound, in assay [1], the GI50 lay in the range of 0.0001 to 10 µM.
With `O=C(c1cccc(-c2cnc3[nH]c(-c4ccccc4)cc3c2)n1)C1CCNCC1` [Compound P-0043, [6-(2-phenyl-1H-pyrrolo[2,3-b]pyridin-5-yl)-2-pyridyl]-(4-piperidyl)methanone], the IC50 at c-KIT lay within 0.0001 to 10 µM. In addition, the GI50 in assay [1] is 0.0001 to 10 µM.
Take `O=C(c1cccc(-c2cnc3[nH]c(-c4ccccc4)cc3c2)n1)N1CCC(F)(F)CC1` [Compound P-0089, (4,4-difluoro-1-piperidyl)-[6-(2-phenyl-1H-pyrrolo[2,3-b]pyridin-5-yl)-2-pyridyl]methanone]: the IC50 on c-KIT was 50 to 100 µM. Also, in assay [1], the GI50 was in the range of 0.0001 to 10 µM.
